Assay results taken from patent US20170007615A1, “Antibacterial Compounds” (priority 2014, published 2017).
In brackets after ≈: the same amount, converted by molar mass. Read-outs that look alike come from different tables or passages of the source.

Columns and labels:
Assay in all cases: Antibacterial activity (MIC) against drug resistant clinical isolates, alone and with PMBN
Format in all cases: cell-based
[1] = tested on: E. coli drug resistant clinical isolates; settings: for MIC: Escherichia coli, read-out: MIC Compound alone
[2] = tested on: P. aeruginosa drug resistant clinical isolates; settings: for MIC: Pseudomonas aeruginosa, read-out: MIC Compound alone
[3] = tested on: A. baumannii drug resistant clinical isolates

With `CCNC(=O)Nc1nc2cc(-c3cnc(NS(=O)(=O)C(C)(C)C)nc3)cc(-c3ccc(C)cn3)c2s1` [Compound A-13, 1-[5-[2-(tert-Butylsulfonylamino)pyrimidin-5-yl]-7-(5-methyl-2-pyridyl)-1,3-benzothiazol-2-yl]-3-ethyl-urea] the “MIC of Compound (μg/ml) in the presence of PMBN (128 μg/ml)” value (from here on “MIC of Compound (μg/ml)”) ([1]; E. coli (BAA200)) was “≦0.008 μg/ml”, the “MIC of Compound (μg/ml)” value ([1]; E. coli (MMX 1312)) was “≦0.008 μg/ml” and the “MIC of Compound (μg/ml)” value ([1]; E. coli (MMX 2232)) was “≦0.008 μg/ml”. For the same compound, the “MIC of Compound (μg/ml)” value ([1]; E. coli (MMX 5743)) was “≦0.008 μg/ml”, the “MIC of Compound (μg/ml)” value ([1]; E. coli (MMX 5771)) was “≦0.12 μg/ml” and the “MIC of Compound (μg/ml)” value ([1]; E. coli (MMX 6413)) was “≦0.12 μg/ml”. For the same compound, the “MIC of Compound (μg/ml)” value ([1]; E. coli (NCTC11954)) was “≦0.008 μg/ml”, the “MIC of Compound (μg/ml)” value ([1]; E. coli (NCTC13351)) was “≦0.12 μg/ml” and the “MIC of Compound (μg/ml)” value ([1]; E. coli (NCTC13352)) was “≦0.008 μg/ml”. The “MIC of Compound (μg/ml)” value ([1]; E. coli (NCTC13353)) was “≦0.008 μg/ml”, the “MIC of Compound (μg/ml)” value ([1]; E. coli (NCTC13400)) was “≦0.008 μg/ml” and the “MIC of Compound (μg/ml)” value ([1]; E. coli (NCTC13441)) was “≦0.12 μg/ml”. The “MIC of Compound (μg/ml)” value ([1]; E. coli (NCTC13450)) was “≦0.12 μg/ml”, the “MIC of Compound (μg/ml)” value ([1]; E. coli (NCTC13461)) was “≦0.12 μg/ml” and the “MIC of Compound (μg/ml)” value ([1]; E. coli (NCTC13462)) was “≦0.008 μg/ml”. For the same compound, the “MIC of Compound (μg/ml)” value ([1]; E. coli (NCTC13463)) was “≦0.008 μg/ml”, the “MIC of Compound (μg/ml)” value ([1]; E. coli (NCTC13476)) was “≦0.12 μg/ml” and the MIC ([1]; BAA200, E. coli (BAA200)) was greater than 4 µg/mL. The MIC ([1]; E. coli (MMX 1312)) was 16 µg/mL (≈ 30.4 µM), the MIC ([1]; E. coli (MMX 2232)) was 16 µg/mL (≈ 30.4 µM) and the MIC ([1]; E. coli (MMX 5743)) was 4 µg/mL (≈ 7.61 µM). It also gave an MIC ([1]; E. coli (MMX 5771)) greater than 64 µg/mL, an MIC ([1]; E. coli (MMX 6413)) greater than 64 µg/mL and an MIC ([1]; NCTC11954, E. coli (NCTC11954)) of 2 µg/mL (≈ 3.8 µM). It also gave an MIC ([1]; NCTC13351, E. coli (NCTC13351)) greater than 64 µg/mL, an MIC ([1]; NCTC13352, E. coli (NCTC13352)) of 4 µg/mL (≈ 7.61 µM) and an MIC ([1]; NCTC13353, E. coli (NCTC13353)) of 1 µg/mL (≈ 1.9 µM). For the same compound, the MIC ([1]; NCTC13400, E. coli (NCTC13400)) was greater than 4 µg/mL, the MIC ([1]; NCTC13441, E. coli (NCTC13441)) was greater than 64 µg/mL and the MIC ([1]; NCTC13450, E. coli (NCTC13450)) was greater than 64 µg/mL. The MIC ([1]; NCTC13461, E. coli (NCTC13461)) was greater than 64 µg/mL, the MIC ([1]; NCTC13462, E. coli (NCTC13462)) was greater than 4 µg/mL and the MIC ([1]; NCTC13463, E. coli (NCTC13463)) was 2 µg/mL (≈ 3.8 µM). The MIC ([1]; NCTC13476, E. coli (NCTC13476)) was 8 µg/mL (≈ 15.2 µM), the “MIC of Compound (μg/ml)” value ([2]; P. aeruginosa (MMX3007)) was 0.03 µg/mL and the “MIC of Compound (μg/ml)” value ([2]; P. aeruginosa (MMX3022)) was 0.03 µg/mL. The “MIC of Compound (μg/ml)” value ([2]; P. aeruginosa (MMX3025)) was 0.03 µg/mL, the “MIC of Compound (μg/ml)” value ([2]; P. aeruginosa (MMX3026)) was “≦0.008 μg/ml” and the “MIC of Compound (μg/ml)” value ([2]; P. aeruginosa (MMX4700)) was 0.12 µg/mL. For the same compound, the “MIC of Compound (μg/ml)” value ([2]; P. aeruginosa (NCTC13437)) was 0.016 µg/mL, the MIC ([2]; NCTC13437, P. aeruginosa (NCTC13437)) was 16 µg/mL (≈ 30.4 µM) and the MIC ([2]; P. aeruginosa (MMX3007)) was greater than 16 µg/mL. For the same compound, the MIC ([2]; P. aeruginosa (MMX3022)) was 8 µg/mL (≈ 15.2 µM), the MIC ([2]; P. aeruginosa (MMX3025)) was greater than 16 µg/mL and the MIC ([2]; P. aeruginosa (MMX3026)) was greater than 16 µg/mL. For the same compound, the MIC ([2]; P. aeruginosa (MMX4700)) was 16 µg/mL (≈ 30.4 µM), the “MIC of Compound (μg/ml)” value ([3]; A. baumannii (MMX 2585)) was 0.12 µg/mL and the “MIC of Compound (μg/ml)” value ([3]; A. baumannii (MMX 2598)) was 0.06 µg/mL. The “MIC of Compound (μg/ml)” value ([3]; A. baumannii (MMX 2600)) was 0.06 µg/mL and the “MIC of Compound (μg/ml)” value ([3]; A. baumannii (MMX 4405)) was 0.12 µg/mL.
